Patent publication US20210204574A1, “Consumable Product Comprising Malted Wheat” (Lantmannen Functional Foods AB, priority 2018, published 2021)

System: cholera toxin-induced secretion
Experiment: not given
Set-up: species or system Sprague-Dawley rats
Conditions: rat, in vivo

Row | Molecule | AF units | Inhibition, % | antisecretory activity of pure phenols (in words)
1 | COc1ccccc1O [Guaiacol, 2-methoxyphenol] | 0.9 ± 0.3 1.0 ± 0.2 1.5 ± 0.2 AF units | 46 51 76% | induced antisecretory activity as early as day 1
2 | O=c1c(O)c(-c2ccc(O)c(O)c2)oc2cc(O)cc(O)c12 [Quercetin] | 0.8 ± 0.1 AF units | 42% | significant antisecretory activity
3 | COc1ccc([C@@H]2OC[C@@H]3[C@H]2CO[C@H]3c2ccc(OC)c(OC)c2)cc1OC [Eudesmine] | – | 16% | increased secretion
4 | OCc1ccccc1O[C@@H]1O[C@H](CO)[C@@H](O)[C@H](O)[C@H]1O [Salicin] | 0.3 ± 0.1 AF units | 17% | much smaller effect
5 | Oc1cc2c(cc1O)CN(C(=S)NCCc1ccc(Cl)cc1)CCC2 [Capsazepine] | 0.8 ± 0.1 1.3 ± 0.1 AF units | 38 66% | as active as guaiacol
6 | COc1ccccc1OC [Veratrole] | – | 21% | induced secretion
7 | COc1cc(C(=O)O)ccc1O [Vanillic acid] | 1.1 ± 0.1 AF units | 57% | significant antisecretory activity
8 | Oc1cccc(O)c1 [Resorcinol] | 0.6 ± 0.1 AF units | 30% | much smaller effect
9 | COc1cc(/C=C/C(=O)O)ccc1O [Ferulic acid] | 1.2 ± 0.2 AF units | 67% | significant antisecretory activity

System: compleasomes (proteasome/complement complexes)
Experiment: Compleasome assay in blood (sandwich ELISA, mab against AF / polyclonal against C3c)
Type: in vivo, Sprague-Dawley rats
Conditions: FIG. 10a; 5 μM phenol or leachate in drinking water for 14 days; reversed titre
Method: In another set of experiments, the rats were given water extracts of the cereals or purified phenols in their drinking water. The malted Kosack wheat was milled to flour, of which 200 g was put in a glass flask and 800 ml boiling water was successively mixed with the flour. After 3 hours of slow cooling to room temperature, the soak-water was filtered through a nylon filter and centrifuged for 30 min at 12000×g. The supernatant was frozen in 50 ml portions and diluted 1:6 with water each day during the experiment. Freeze-dried purified fractions of wheat extracts were dissolved in the drinking water. […] The drinks or the water control were given in excess over 1-14 days before testing of antisecretory activity.
Rats were given leachate from malted wheat or pure phenols in the drinking water as described above. After 14 days, blood samples were drawn as described elsewhere (Bjorck et al., 2000 and Lönnroth et al., 2016) and the antisecretory activity in blood was estimated by performing a sandwich enzyme-linked immunosorbent assay (ELISA) for detection of compleasomes (proteasome/complement complexes) in blood plasma as described elsewhere (Lonnroth et al., 2016). A monoclonal antibody (mab) against antisecretory factor was used as catching antibody and a polyclonal antibody against complement factor 3c as detecting antibody. The titre was determined after development by a secondary antibody coupled to alkaline phosphatas.

Row | Molecule | proteasome/C3 complex (AF activity in blood) compared to controls
10 | COc1ccccc1O [Guaiacol, 2-methoxyphenol] | significantly higher
11 | COc1cc(/C=C/C(=O)O)ccc1O [Ferulic acid] | significantly higher

Same assay, conditions: FIG. 10b; in drinking water for 14 days, 5 animals/group

Row | Molecule | compleasome concentration (AF activity in blood)
12 | catechin | significant increase
13 | COc1cc(/C=C/C(=O)O)cc(OC)c1O [sinapic acid] | significant increase
